For series [1] the following is noted: drafted three tiered IDLHs; cited from earlier work.
The subject of another series is RAD54 protein. Conditions: yeast cells, H2O2 170, 1700 and 17,000 ppm for 60 minutes.

Method for RAD54 protein: Yeast cells grown in YPD (for Yeast-extract, Peptone and Dextrose culture medium) was harvested in early saturation phase of growth and distributed into the first row of the microchip (A1 through A3), covered with a plexiglass lid and stored as slurries (10^7 cells) at 4° C. until use. H2O2 was added to experimental wells and deionized water to the control well.
A single time, multiple dose study was done at 170, 1700 and 17,000 ppm for 60 minutes. Y-PER (for Yeast-Protein Extraction Reagent) supplemented with protease inhibitor cocktail was added to the cells and incubated for 20 minutes at room temperature (RT).
The supernatant (cell extract) was transferred using an ultrafine pipette tip to the second row of wells (B1 through B3) and incubated with the colloidal SERS immunosensor for RAD54 detection by incubating for 90 minutes at RT. […]
The spectra were analyzed by multivariate PCA-LDA (principle component analysis and linear discriminant analysis) using the leave-one-out cross validation model. The levels of RAD54 protein were measured using the SERS-linked immunosensor assay and RAD54 levels expressed in response to H2O2 were correlated to EPA 3-tier guideline levels, IDLHs (for Immediately Dangerous to Life and Health concentrations) as determined by the Center for Disease Control and Prevention (CDC).

Turning to `OO` [H2O2, Hydrogen peroxide], in series [1], the “IDLH tier II (lethal, long-lasting disabling effect)” value was at most 1000 ppm and the “IDLH tier III (lethal, life-threatening effect or even death)” value is reported as over 1000 ppm. The “peak intensity of protein measured at 1390 cm^-1 (carboxylic band, SLISA)” value in the series on RAD54 protein was “dose-dependent increase”. Further, in the series with RAD54 protein (SLISA and ELISA), the “increase in RAD54 expression as compared to control (baseline expression by cells with no toxin exposure)” value is about 4 fold.

The values above are taken from US10145845B2, “On-chip assay for environmental surveillance” (priority 2015, dated 2018).
